The values that follow are results of earlier work, collected in patent US20120277156A1, “INHIBITION OF PATHOLOGICAL BONE FORMATION” (priority 2009, published 2012).

This series relates to proprioception. The following applies: rat, in vivo.

On to `CCN(CC)CC(=O)Nc1c(C)cccc1C` [lidocaine], for which the “time by which function was fully recovered” value was at most 120 min.
